Reference: patent US11739098B2 (BRISTOL-MYERS SQUIBB COMPANY, priority 2017, dated 2023)

Legend:
Assay type in all cases: cell-based
human TLR7 = biological target: T1, human TLR7 (Homo sapiens, UniProt Q9NYK1); test: TLR7 inhibition reporter assay (HEK-Blue cells, SEAP reporter, gardiquimod stimulation); settings: HEK-Blue cells overexpressing human TLR7, SEAP reporter, gardiquimod 7.5 μM
T1 construct: host or cells: HEK-Blue cells (HEK293-derived reporter line)
T1 sequence (Q9NYK1 27-1049): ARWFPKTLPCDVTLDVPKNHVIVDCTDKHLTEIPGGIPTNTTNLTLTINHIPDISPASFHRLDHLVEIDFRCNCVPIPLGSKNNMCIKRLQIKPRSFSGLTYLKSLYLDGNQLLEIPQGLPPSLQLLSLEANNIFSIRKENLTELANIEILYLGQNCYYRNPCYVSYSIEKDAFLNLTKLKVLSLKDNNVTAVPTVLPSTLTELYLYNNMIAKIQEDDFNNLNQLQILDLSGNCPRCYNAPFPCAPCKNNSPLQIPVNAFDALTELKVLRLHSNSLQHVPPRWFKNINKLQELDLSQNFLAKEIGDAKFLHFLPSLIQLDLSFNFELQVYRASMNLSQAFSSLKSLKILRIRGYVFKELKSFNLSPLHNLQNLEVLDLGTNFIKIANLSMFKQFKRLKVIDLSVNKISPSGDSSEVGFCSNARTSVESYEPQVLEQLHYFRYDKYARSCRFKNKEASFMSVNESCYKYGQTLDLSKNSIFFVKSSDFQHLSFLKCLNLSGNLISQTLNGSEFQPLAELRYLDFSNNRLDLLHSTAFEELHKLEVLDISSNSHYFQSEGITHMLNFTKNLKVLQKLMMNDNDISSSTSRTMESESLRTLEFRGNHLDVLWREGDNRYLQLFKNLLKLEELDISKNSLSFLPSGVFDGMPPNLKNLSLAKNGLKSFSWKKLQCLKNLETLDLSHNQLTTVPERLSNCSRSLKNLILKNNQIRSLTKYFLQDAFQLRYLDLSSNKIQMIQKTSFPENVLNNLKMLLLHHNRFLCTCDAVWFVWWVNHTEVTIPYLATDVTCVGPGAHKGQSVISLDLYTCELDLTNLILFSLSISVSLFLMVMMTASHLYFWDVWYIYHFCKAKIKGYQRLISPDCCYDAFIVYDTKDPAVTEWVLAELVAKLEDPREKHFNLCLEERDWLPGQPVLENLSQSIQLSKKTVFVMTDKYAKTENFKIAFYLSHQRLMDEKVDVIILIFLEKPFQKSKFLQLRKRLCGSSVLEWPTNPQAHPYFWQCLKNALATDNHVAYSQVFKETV
Outline: (§1)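 HEK-Blue cells overexpressing human TLR7, TLR8 or TLR9 (NF-κB/AP-1-driven SEAP) pre-treated 30 min at room temperature with compound (0.05 nM–50 μM), then stimulated with gardiquimod 7.5 μM (TLR7), R848 15.9 μM (TLR8) or ODN2006 5 nM (TLR9). SEAP read colorimetrically after 22 h at 37 °C; % inhibition calculated.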

human TLR9 = biological target: T2, human TLR9 (Homo sapiens, UniProt Q9NR96); test: TLR9 inhibition reporter assay (HEK-Blue cells, SEAP reporter, ODN2006 stimulation); settings: HEK-Blue cells overexpressing human TLR9, SEAP reporter, ODN2006 5 nM
T2 construct: host or cells: HEK-Blue cells (HEK293-derived reporter line)
T2 sequence (Q9NR96 26-1032): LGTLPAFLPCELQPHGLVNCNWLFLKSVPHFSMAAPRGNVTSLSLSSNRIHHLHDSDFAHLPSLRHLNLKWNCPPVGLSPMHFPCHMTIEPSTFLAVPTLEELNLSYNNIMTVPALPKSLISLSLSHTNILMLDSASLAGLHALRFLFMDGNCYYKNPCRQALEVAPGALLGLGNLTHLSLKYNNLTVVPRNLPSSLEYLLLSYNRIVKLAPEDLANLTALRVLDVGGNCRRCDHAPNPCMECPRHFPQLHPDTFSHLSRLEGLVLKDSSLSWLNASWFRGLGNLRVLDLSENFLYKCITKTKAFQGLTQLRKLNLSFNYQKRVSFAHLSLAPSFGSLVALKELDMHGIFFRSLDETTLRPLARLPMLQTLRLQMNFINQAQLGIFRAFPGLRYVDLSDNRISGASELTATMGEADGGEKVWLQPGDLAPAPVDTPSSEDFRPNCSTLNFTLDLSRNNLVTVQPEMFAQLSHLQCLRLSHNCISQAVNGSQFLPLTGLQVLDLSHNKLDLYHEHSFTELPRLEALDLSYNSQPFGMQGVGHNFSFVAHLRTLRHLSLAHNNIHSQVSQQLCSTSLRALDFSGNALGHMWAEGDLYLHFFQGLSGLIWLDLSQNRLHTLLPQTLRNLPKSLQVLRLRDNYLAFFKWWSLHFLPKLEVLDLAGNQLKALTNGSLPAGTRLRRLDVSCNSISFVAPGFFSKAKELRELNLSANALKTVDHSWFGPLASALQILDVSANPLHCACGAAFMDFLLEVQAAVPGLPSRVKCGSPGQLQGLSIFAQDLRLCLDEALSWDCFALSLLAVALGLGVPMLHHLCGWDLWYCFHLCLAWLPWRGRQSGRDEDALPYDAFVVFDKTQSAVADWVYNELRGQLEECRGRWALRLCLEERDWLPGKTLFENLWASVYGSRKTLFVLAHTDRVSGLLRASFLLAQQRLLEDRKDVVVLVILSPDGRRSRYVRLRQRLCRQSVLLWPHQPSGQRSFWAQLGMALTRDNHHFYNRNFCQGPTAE
Outline: as §1

human TLR8 = biological target: T3, human TLR8 (Homo sapiens, UniProt Q9NR97); test: TLR8 inhibition reporter assay (HEK-Blue cells, SEAP reporter, R848 stimulation); settings: HEK-Blue cells overexpressing human TLR8, SEAP reporter, R848 15.9 μM
T3 construct: host or cells: HEK-Blue cells (HEK293-derived reporter line)
T3 sequence (Q9NR97 27-1041): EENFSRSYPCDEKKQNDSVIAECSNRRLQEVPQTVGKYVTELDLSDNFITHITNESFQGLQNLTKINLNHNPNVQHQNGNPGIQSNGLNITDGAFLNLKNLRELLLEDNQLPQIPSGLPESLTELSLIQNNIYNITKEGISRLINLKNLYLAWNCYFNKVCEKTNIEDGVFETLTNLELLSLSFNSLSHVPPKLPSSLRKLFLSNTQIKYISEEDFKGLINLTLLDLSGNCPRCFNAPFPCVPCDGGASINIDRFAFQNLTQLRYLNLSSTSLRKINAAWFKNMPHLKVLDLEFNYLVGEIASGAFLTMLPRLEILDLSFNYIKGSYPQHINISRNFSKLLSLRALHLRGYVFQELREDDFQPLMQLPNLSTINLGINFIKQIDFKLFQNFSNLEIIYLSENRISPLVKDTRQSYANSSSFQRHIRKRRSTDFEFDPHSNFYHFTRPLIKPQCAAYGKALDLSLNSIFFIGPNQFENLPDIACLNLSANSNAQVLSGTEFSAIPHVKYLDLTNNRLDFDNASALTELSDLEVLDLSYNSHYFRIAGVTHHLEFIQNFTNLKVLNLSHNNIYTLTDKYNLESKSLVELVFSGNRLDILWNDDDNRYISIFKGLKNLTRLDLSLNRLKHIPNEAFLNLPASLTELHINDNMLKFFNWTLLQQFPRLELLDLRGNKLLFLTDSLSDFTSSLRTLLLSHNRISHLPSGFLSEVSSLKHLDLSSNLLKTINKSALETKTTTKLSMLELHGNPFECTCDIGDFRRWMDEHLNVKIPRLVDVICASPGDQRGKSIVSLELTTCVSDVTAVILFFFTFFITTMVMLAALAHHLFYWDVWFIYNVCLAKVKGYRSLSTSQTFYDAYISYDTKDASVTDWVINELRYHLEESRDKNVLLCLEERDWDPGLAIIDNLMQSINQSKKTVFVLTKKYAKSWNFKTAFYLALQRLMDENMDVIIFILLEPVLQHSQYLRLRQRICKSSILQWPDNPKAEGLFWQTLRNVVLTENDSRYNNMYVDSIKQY
Outline: as §1

Row | SMILES | IC50 (human TLR7) [nM] | IC50 (human TLR9) [nM] | IC50 (human TLR8) [nM]
1 | CC(C)c1c(-c2ccnc3[nH]ncc23)[nH]c2ccc(C3CCNCC3F)cc12 (stereo not drawn) [Example 172, 4-(5-(3-fluoropiperidin-4-yl)-3-isopropyl-1H-indol-2-yl)-1H-pyrazolo[3,4-b]pyridine] | < 100 | 1000 to 50000 | < 100
2 | CCOc1cc(-c2[nH]c3ccc(C4CCNCC4)cc3c2C(C)C)cc2ncnn12 [Example 157, 5-ethoxy-7-(3-isopropyl-5-(piperidin-4-yl)-1H-indol-2-yl)-[1,2,4]triazolo[1,5-a]pyridine] | < 100 | 100 to 1000 | < 100
3 | Cc1cc(-c2[nH]c3ccc(C4CCN(C5COC5)CC4)cc3c2C(C)C)c2ccccc2n1 [Example 725, 4-(3-isopropyl-5-(1-(oxetan-3-yl)piperidin-4-yl)-1H-indol-2-yl)-2-methylquinoline] | < 100 | 1000 to 50000 | 100 to 1000
4 | CC(C)c1c(-c2cnc3ccnn3c2)[nH]c2ccc(C3CCN(C4COC4)CC3)cc12 [Example 713, 6-(3-isopropyl-5-(1-(oxetan-3-yl)piperidin-4-yl)-1H-indol-2-yl)pyrazolo[1,5-a]pyrimidine] | > 3130 | 1000 to 50000 | > 3130
5 | Cc1cc(-c2[nH]c3ccc(C4CCN(C5CCOCC5)CC4)cc3c2C(C)C)cc2cncn12 [Example 707, 7-(3-isopropyl-5-(1-(tetrahydro-2H-pyran-4-yl)piperidin-4-yl)-1H-indol-2-yl)-5-methylimidazo[1,5-a]pyridine] | < 100 | 100 to 1000 | < 100
6 | CC(C)c1c(-c2ccnc3[nH]ncc23)[nH]c2ccc(C3CCN(Cc4cc(F)cnc4Cl)CC3)cc12 [Example 913, 4-(5-(1-((2-chloro-5-fluoropyridin-3-yl)methyl)piperidin-4-yl)-3-isopropyl-1H-indol-2-yl)-1H-pyrazolo[3,4-b]pyridine] | 100 to 1000 | > 50000 | 100 to 1000
7 | CC(C)c1c(-c2ccnc3[nH]ncc23)[nH]c2ccc(C3CCN(C4C[C@H]5CC[C@@H](C4)N5C)CC3)cc12 (stereo partly drawn) [Example 829, 4-(3-isopropyl-5-(1-((1R,5S)-8-methyl-8-azabicyclo[3.2.1]octan-3-yl)piperidin-4-yl)-1H-indol-2-yl)-1H-pyrazolo[3,4-b]pyridine] | < 100 | 100 to 1000 | < 100
8 | Cc1nn2ccc(-c3[nH]c4ccc(C5CCNCC5)cc4c3C(C)C)cc2c1F [Example 146, 3-fluoro-5-(3-isopropyl-5-(piperidin-4-yl)-1H-indol-2-yl)-2-methylpyrazolo[1,5-a]pyridine] | < 100 | > 50000 | 100 to 1000

More lines, now with the values ahead:

Row | IC50 (human TLR7) [nM] | IC50 (human TLR9) [nM] | IC50 (human TLR8) [nM] | SMILES
9 | < 100 | > 50000 | < 100 | CC(C)c1c(-c2cn(C)c3ncccc23)[nH]c2ccc(C3CCN(CCC#N)CC3)cc12 [Example 959, 3-(4-(3-isopropyl-2-(1-methyl-1H-pyrrolo[2,3-b]pyridin-3-yl)-1H-indol-5-yl)piperidin-1-yl)propanenitrile]
10 | 100 to 1000 | > 50000 | 100 to 1000 | CC(C)c1c(-c2ccnc3[nH]ncc23)[nH]c2ccc(C3CCN(C(=O)CCC(=O)N(C)C)CC3)cc12 [Example 613, 4-(4-(3-isopropyl-2-(1H-pyrazolo[3,4-b]pyridin-4-yl)-1H-indol-5-yl)piperidin-1-yl)-N,N-dimethyl-4-oxobutanamide]
11 | < 100 | 1000 to 50000 | < 100 | CC(C)c1c(-c2cn(C)c3ncccc23)[nH]c2ccc(C3CCN(C(=O)CN(C)C)CC3)cc12 [Example 463, 2-(dimethylamino)-1-(4-(3-isopropyl-2-(1-methyl-1H-pyrrolo[2,3-b]pyridin-3-yl)-1H-indol-5-yl)piperidin-1-yl)ethan-1-one]
12 | < 100 | 1000 to 50000 | < 100 | CCN(C)CC(=O)N1CCC(c2ccc3[nH]c(-c4cc(C)c5nnnn5c4)c(C(C)C)c3c2)CC1 [Example 475, 2-(ethyl(methyl)amino)-1-(4-(3-isopropyl-2-(8-methyltetrazolo[1,5-a]pyridin-6-yl)-1H-indol-5-yl)piperidin-1-yl)ethan-1-one]
